In patent US7238689B2, “Isoxazoline derivative and herbicide comprising the same as active ingredient” (Ihara Chemical Industry Co., Ltd., priority 2001, dated 2007):

test system: Echinochloa crus-galli (L.) Beauv. var. crus-galli; test: Herbicidal effect by upland foliage treatment; format: in vivo; design: scale not given here; conditions: active ingredient 1000 g/ha, examined at 14th day from treatment
Procedure: (§1) A sand was filled in a plastic pot of 80 cm^2. Seeds of Echinochloa crus-galli (L.) Beauv. var. crus-galli and Setaria viridis (L.) Beauv. were sowed. Breeding was made in a greenhouse for 2 weeks. Wettable powders produced in accordance with the Formulation 1 were diluted with water and sprayed on the whole foliage of plants from above the plants using a small sprayer in an amount of 1,000 liters per 1 hectare so that the amount of each active ingredient became 1,000 g per 1 hectare. Then, breeding was made in the greenhouse, and the herbicidal effect of each wettable powder was examined at the 14th day from the treatment in accordance with the standard shown in Table 21.

| SMILES | herbicidal effect (index per standard of Table 21), Echinochloa curs-galli (L.) Beauv. Var. crus-galli |
| --- | --- |
| CC(C)Cn1nc(C(F)(F)F)c(CS(=O)(=O)C2=NOC(C)(C)C2)c1Cl [3-0083] | 4 |
| Cn1ncc(CS(=O)(=O)C2=NOC(C)(C)C2)c1Cl [3-0035] | 4 |
| COC(=O)c1c(Cl)sc(Cl)c1CS(=O)(=O)C1=NOC(C)(C)C1 [2-0011] | 5 |
| CCc1nn(C)c(CS(=O)(=O)C2=NOC(C)(C)C2)c1Cl [5-0002] | 5 |
| Cn1nc(C(F)(F)F)c(CS(=O)(=O)C2=NOC(C)(C)C2)c1OC1CCCCC1 [3-0049] | 4 |
| CC1(C)CC(S(=O)(=O)Cc2c(C(F)(F)F)nn(CC3CC3)c2Cl)=NO1 [3-0092] | 4 |
| CCCn1nc(C(F)(F)F)c(CS(=O)(=O)C2=NOC(C)(C)C2)c1Cl [3-0077] | 5 |
| Cc1nn(C)c(C)c1CS(=O)(=O)C1=NOC(C)(C)C1 [3-0036] | 4 |
| C#CCn1nc(C(F)(F)F)c(CS(=O)(=O)C2=NOC(C)(C)C2)c1Cl [3-0106] | 5 |
| C=CCn1nc(C(F)(F)F)c(CS(=O)(=O)C2=NOC(C)(C)C2)c1Cl [3-0104] | 5 |

test system: Setaria viridis (L.) Beauv.; test: Herbicidal effect by upland foliage treatment; format: in vivo; design: scale not given here; conditions: active ingredient 1000 g/ha, examined at 14th day from treatment
Procedure: as §1

| SMILES | herbicidal effect (index per standard of Table 21), Setaria viridis (L.) Beauv. |
| --- | --- |
| CC(C)Cn1nc(C(F)(F)F)c(CS(=O)(=O)C2=NOC(C)(C)C2)c1Cl [3-0083] | 4 |
| Cn1ncc(CS(=O)(=O)C2=NOC(C)(C)C2)c1Cl [3-0035] | 4 |
| COC(=O)c1c(Cl)sc(Cl)c1CS(=O)(=O)C1=NOC(C)(C)C1 [2-0011] | 4 |
| CCc1nn(C)c(CS(=O)(=O)C2=NOC(C)(C)C2)c1Cl [5-0002] | 5 |
| Cn1nc(C(F)(F)F)c(CS(=O)(=O)C2=NOC(C)(C)C2)c1OC1CCCCC1 [3-0049] | 4 |
| CC1(C)CC(S(=O)(=O)Cc2c(C(F)(F)F)nn(CC3CC3)c2Cl)=NO1 [3-0092] | 4 |
| CCCn1nc(C(F)(F)F)c(CS(=O)(=O)C2=NOC(C)(C)C2)c1Cl [3-0077] | 4 |
| Cc1nn(C)c(C)c1CS(=O)(=O)C1=NOC(C)(C)C1 [3-0036] | 4 |
| C#CCn1nc(C(F)(F)F)c(CS(=O)(=O)C2=NOC(C)(C)C2)c1Cl [3-0106] | 4 |
| C=CCn1nc(C(F)(F)F)c(CS(=O)(=O)C2=NOC(C)(C)C2)c1Cl [3-0104] | 4 |

test system: Monochoria vaginalis (Murm. f.) Presl var. plantaginea (Roxb.) Solms-Laub.; test: Herbicidal effect by paddy field soil treatment; format: in vivo; design: scale not given here; conditions: wettable powder, active ingredient 1000 g/ha, examined at the 21st day from the treatment
Outline: (§2)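 Seeds sown in puddled paddy soil under 3 cm of water; the next day wettable powders diluted in water were dropped onto the water surface at 1,000 g active ingredient/ha. Plants grown in a greenhouse, with herbicidal effect scored on day 21 against a rating standard.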

| SMILES | Herbicidal effect index, Monochoria vaginalis (Burm. F.) Presl var. plantaginea (Roxb.) Solms-Laub. |
| --- | --- |
| CC(C)Cn1nc(C(F)(F)F)c(CS(=O)(=O)C2=NOC(C)(C)C2)c1Cl [3-0083] | 5 |
| Cn1ncc(CS(=O)(=O)C2=NOC(C)(C)C2)c1Cl [3-0035] | 5 |
| COC(=O)c1c(Cl)sc(Cl)c1CS(=O)(=O)C1=NOC(C)(C)C1 [2-0011] | 5 |
| CCc1nn(C)c(CS(=O)(=O)C2=NOC(C)(C)C2)c1Cl [5-0002] | 5 |
| Cn1nc(C(F)(F)F)c(CS(=O)(=O)C2=NOC(C)(C)C2)c1OC1CCCCC1 [3-0049] | 5 |

test system: Echinochloa oryzicola Vasing; test: Herbicidal effect by paddy field soil treatment; format: in vivo; design: scale not given here; conditions: wettable powder, active ingredient 1000 g/ha, examined at the 21st day from the treatment
Outline: as §2

| SMILES | Herbicidal effect index, Echinochloa oryzicola Vasing |
| --- | --- |
| CC(C)Cn1nc(C(F)(F)F)c(CS(=O)(=O)C2=NOC(C)(C)C2)c1Cl [3-0083] | 5 |
| Cn1ncc(CS(=O)(=O)C2=NOC(C)(C)C2)c1Cl [3-0035] | 5 |
| COC(=O)c1c(Cl)sc(Cl)c1CS(=O)(=O)C1=NOC(C)(C)C1 [2-0011] | 5 |
| CCc1nn(C)c(CS(=O)(=O)C2=NOC(C)(C)C2)c1Cl [5-0002] | 5 |
| Cn1nc(C(F)(F)F)c(CS(=O)(=O)C2=NOC(C)(C)C2)c1OC1CCCCC1 [3-0049] | 5 |

test system: Setaria viridis (L.) Beauv.; test: Herbicidal effect by upland field soil treatment; format: in vivo; design: scale not given here; conditions: active ingredient 1000 g/ha, examined at 21st day from treatment
Text: (§3) An upland field soil was filled in a plastic pot of 80 cm^2. Seeds of Echinochloa crus-galli (L.) Beauv. var. crusgalli and Setaria viridis (L.) Beauv. were sowed, followed by covering with the same soil. […] Then, breeding was made in a greenhouse, and the herbicidal effect of each wettable powder was examined at the 21st day from the treatment in accordance with the standard shown in Table 21.

| SMILES | herbicidal effect (index per standard of Table 21), Setaria viridis (L.) Beauv. |
| --- | --- |
| CC(C)Cn1nc(C(F)(F)F)c(CS(=O)(=O)C2=NOC(C)(C)C2)c1Cl [3-0083] | 5 |
| Cn1ncc(CS(=O)(=O)C2=NOC(C)(C)C2)c1Cl [3-0035] | 5 |
| COC(=O)c1c(Cl)sc(Cl)c1CS(=O)(=O)C1=NOC(C)(C)C1 [2-0011] | 4 |
| CCc1nn(C)c(CS(=O)(=O)C2=NOC(C)(C)C2)c1Cl [5-0002] | 5 |
| Cn1nc(C(F)(F)F)c(CS(=O)(=O)C2=NOC(C)(C)C2)c1OC1CCCCC1 [3-0049] | 5 |
| Cc1nn(C)c(C)c1CS(=O)(=O)C1=NOC(C)(C)C1 [3-0036] | 5 |

test system: Echinochloa crus-galli (L.) Beauv. var. crusgalli; test: Herbicidal effect by upland field soil treatment; format: in vivo; design: scale not given here; conditions: active ingredient 1000 g/ha, examined at 21st day from treatment
Text: as §3

| SMILES | herbicidal effect (index per standard of Table 21), Echinochloa curs-galli (L.) Beauv. Var. crus-galli |
| --- | --- |
| CC(C)Cn1nc(C(F)(F)F)c(CS(=O)(=O)C2=NOC(C)(C)C2)c1Cl [3-0083] | 5 |
| Cn1ncc(CS(=O)(=O)C2=NOC(C)(C)C2)c1Cl [3-0035] | 5 |
| COC(=O)c1c(Cl)sc(Cl)c1CS(=O)(=O)C1=NOC(C)(C)C1 [2-0011] | 5 |
| CCc1nn(C)c(CS(=O)(=O)C2=NOC(C)(C)C2)c1Cl [5-0002] | 5 |
| Cn1nc(C(F)(F)F)c(CS(=O)(=O)C2=NOC(C)(C)C2)c1OC1CCCCC1 [3-0049] | 5 |
| Cc1nn(C)c(C)c1CS(=O)(=O)C1=NOC(C)(C)C1 [3-0036] | 5 |
